Source: publication PMC11052071, “Novel JAK Inhibitors to Reduce Graft-Versus-Host Disease after Allogeneic Hematopoietic Cell Transplantation in a Preclinical Mouse Model” (Molecules, 2024)
Where two headings read alike, the source gives them in different places.

Experiments:
TYK2 = TYK2 (Homo sapiens, UniProt P29597); test: Z'-LYTE enzyme activity assay (SelectScreen Kinase Profiling), TYK2
GvHD = test: Preclinical mouse model of allo-HCT (GvHD); type: in vivo, Balb/c recipient mice
Description: To determine the potential of WU4 and WU8 in preventing GvHD, we performed allo-HCT in which 5 × 10^6 T cell-depleted bone marrow (TCD-BM; CD45.1+) and 5 × 10^5 splenic pan T cells (CD45.2+) obtained from B6 mice were transplanted into lethally irradiated (900 cGy on day −1) Balb/c allogeneic recipient mice on day 0. […]. […] Among monocyte subsets, we only considered classical (LyG6^−CD11b^+Ly6C^high) and intermediate monocytes (LyG6^−CD11b^+Ly6C^middle) as APCs, excluding non-classical monocytes (LyG6^−CD11b^+Ly6C^low) due to their anti-inflammatory function, which downregulates antigen presentation during inflammation. […]
Figure 5 In vivo administration of WU4 and WU8 reduces GvHD by increasing % of Tregs while suppressing % of APCs and costimulatory proteins on APCs after allo-HCT. Allo-HCT was performed as follows: 5 × 10^6 TCD-BM (CD45.1+) and 5 × 10^5 splenic T cells (CD45.2+) obtained from B6 mice were transplanted on day 0 into lethally irradiated (900 cGy on day −1) Balb/c allogeneic recipient mice. TCD-BM-only group served as a no-GvHD control. […] (A,B) The mice were monitored for survival and GvHD signs. (C–F) Whole splenocytes were analyzed for % of Tregs, recipient/BM-derived APCs, and CD80-expressing APCs on day 6 after allo-HCT. LyG6^−CD11b^+Ly6C^high and LyG6^−CD11b^+Ly6C^middle served as classical and intermediate monocyte subsets. NT: neutrophils. * p < 0.05, ** p < 0.01, and *** p < 0.001. All error bars are represented as mean ± standard deviation.
Allo-HCT was performed as previously described. Briefly, BALB/c mice were used as recipients and received 9 Gy total body irradiation on day −1, then were transplanted with 5 × 10^6 T cell-depleted bone marrow (TCD-BM) cells from B6 (CD45.1+) mice along with 0.5 × 10^6 splenic T cells from B6 (CD45.2+) mice on day 0. Mouse TCD-BM and splenic T cells were prepared using an EasySep mouse CD90.2 positive selection kit II and an EasySep mouse T cell isolation kit ([…] Technologies, Cambridge, MA, USA), respectively.
GvHD clinical scores were assessed twice per week by a scoring system incorporating five clinical criteria: weight loss (diarrhea scored 1 regardless of weight change), posture (hunching), mobility, fur texture, and skin integrity, as previously described. Individual mice were scored from 0 to 2 for each criterion and were sacrificed with GvHD scores of 6 or above, following our approved animal protocol.
T cells from in vitro primary murine T cell culture, fresh peripheral blood, or whole splenocytes were analyzed according to cell surface and intracellular markers. Surface markers were directly stained with flow antibodies for 20 min at 4 °C. For intracellular staining (FOXP3 and T-bet), cells were fixed and permeabilized after surface staining using appropriate buffers (One-step intracellular nuclear protein staining protocol, eBioscience, San Diego, CA, USA) and stained with flow antibodies. The antibodies used for flow cytometric analyses for mouse cells were as follows: FOXP3, T-BET, and CD183 (eBioscience, San Diego, CA, USA); CD3, H2-Kb, H2-Kd, CD4, B220, CD11b, CD11c, Ly6C, and DEC205 (BioLegend, San Diego, CA); and CD8, CD45.2, CD80, and Ly6G (BD Pharmingen, San Jose, CA, USA). All cells were run on a ZE5 Cell Analyzer (BD Biosciences, Mountain View, CA, USA) or Attune® NxT (Thermofisher Scientific, Waltham, MA, USA) and analyzed with the FlowJo software, version 10.9.0 (FlowJo LLC., Ashland, OR, USA).

[1] = cited from earlier work; for terminal plasma half-life: human
[2] = human; cited from earlier work
PKN1 = conditions: murine and human whole-kinome analyses; cited from earlier work
JAK2 = JAK2 (Homo sapiens, UniProt O60674); test: Z'-LYTE enzyme activity assay (SelectScreen Kinase Profiling), JAK2
Sequence of JAK2 (O60674 whole entry): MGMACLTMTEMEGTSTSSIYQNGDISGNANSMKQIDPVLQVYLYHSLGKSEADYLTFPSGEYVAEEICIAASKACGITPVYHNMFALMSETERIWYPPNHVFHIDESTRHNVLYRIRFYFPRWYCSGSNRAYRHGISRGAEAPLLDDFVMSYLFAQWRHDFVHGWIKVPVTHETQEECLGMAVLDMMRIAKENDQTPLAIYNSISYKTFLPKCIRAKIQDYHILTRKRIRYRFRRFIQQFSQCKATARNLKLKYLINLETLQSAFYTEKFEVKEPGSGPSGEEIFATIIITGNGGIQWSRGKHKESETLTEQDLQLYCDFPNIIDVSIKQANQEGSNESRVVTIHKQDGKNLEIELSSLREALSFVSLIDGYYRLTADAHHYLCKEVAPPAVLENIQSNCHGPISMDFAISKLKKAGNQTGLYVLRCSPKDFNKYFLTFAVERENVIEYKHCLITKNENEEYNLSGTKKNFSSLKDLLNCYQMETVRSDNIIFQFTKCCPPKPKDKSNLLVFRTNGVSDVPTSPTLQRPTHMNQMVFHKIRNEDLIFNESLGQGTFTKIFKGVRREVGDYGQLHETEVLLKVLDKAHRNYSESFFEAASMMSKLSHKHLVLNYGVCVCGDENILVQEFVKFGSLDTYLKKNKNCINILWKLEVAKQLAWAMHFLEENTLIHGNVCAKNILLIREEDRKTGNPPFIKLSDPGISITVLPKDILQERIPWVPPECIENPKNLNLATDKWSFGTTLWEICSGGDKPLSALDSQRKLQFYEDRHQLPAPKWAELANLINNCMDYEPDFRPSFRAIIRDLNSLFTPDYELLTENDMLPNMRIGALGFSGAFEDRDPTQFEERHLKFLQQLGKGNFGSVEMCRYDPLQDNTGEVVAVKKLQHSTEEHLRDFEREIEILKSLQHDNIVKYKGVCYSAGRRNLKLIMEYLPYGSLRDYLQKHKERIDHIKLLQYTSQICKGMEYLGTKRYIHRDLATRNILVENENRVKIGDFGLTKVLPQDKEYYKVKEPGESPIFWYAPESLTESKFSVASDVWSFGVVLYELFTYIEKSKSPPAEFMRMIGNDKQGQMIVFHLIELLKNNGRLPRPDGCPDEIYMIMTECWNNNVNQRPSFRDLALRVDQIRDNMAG

JAK3 = target: T1, JAK3 (Homo sapiens, UniProt P52333); test: Z'-LYTE enzyme activity assay (SelectScreen Kinase Profiling), JAK3
T1 sequence (P52333 1-1124): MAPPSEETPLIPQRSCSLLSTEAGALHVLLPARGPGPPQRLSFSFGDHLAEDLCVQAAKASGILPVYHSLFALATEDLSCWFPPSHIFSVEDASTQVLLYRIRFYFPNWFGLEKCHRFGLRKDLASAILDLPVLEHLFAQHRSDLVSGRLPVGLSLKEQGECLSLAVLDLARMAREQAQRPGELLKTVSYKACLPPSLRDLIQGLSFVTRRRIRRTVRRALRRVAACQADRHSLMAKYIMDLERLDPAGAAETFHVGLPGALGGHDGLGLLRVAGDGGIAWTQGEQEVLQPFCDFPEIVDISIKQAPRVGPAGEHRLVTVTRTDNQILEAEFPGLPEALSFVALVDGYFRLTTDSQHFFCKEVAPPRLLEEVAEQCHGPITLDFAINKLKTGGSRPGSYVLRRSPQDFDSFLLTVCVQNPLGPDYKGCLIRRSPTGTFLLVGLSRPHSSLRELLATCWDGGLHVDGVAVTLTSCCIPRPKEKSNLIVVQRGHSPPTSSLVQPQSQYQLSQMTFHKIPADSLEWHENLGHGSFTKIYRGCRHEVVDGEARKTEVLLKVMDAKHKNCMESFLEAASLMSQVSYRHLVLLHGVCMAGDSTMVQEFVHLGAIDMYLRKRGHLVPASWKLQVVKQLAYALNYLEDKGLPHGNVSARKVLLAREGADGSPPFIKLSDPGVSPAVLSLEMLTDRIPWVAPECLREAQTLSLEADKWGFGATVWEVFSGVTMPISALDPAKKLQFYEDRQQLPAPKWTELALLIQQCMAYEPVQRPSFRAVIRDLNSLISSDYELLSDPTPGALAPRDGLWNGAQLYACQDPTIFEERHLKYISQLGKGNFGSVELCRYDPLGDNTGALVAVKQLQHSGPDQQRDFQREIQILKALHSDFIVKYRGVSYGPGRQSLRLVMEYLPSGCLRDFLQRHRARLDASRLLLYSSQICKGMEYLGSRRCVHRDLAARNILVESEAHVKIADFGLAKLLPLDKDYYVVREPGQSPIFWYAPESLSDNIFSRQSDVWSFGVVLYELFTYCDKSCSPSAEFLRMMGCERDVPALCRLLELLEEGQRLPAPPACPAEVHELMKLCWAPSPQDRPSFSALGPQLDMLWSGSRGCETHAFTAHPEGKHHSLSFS

JAK1 = JAK1 (Homo sapiens, UniProt P23458); test: Z'-LYTE enzyme activity assay (SelectScreen Kinase Profiling), JAK1
Sequence of JAK1 (P23458 whole entry): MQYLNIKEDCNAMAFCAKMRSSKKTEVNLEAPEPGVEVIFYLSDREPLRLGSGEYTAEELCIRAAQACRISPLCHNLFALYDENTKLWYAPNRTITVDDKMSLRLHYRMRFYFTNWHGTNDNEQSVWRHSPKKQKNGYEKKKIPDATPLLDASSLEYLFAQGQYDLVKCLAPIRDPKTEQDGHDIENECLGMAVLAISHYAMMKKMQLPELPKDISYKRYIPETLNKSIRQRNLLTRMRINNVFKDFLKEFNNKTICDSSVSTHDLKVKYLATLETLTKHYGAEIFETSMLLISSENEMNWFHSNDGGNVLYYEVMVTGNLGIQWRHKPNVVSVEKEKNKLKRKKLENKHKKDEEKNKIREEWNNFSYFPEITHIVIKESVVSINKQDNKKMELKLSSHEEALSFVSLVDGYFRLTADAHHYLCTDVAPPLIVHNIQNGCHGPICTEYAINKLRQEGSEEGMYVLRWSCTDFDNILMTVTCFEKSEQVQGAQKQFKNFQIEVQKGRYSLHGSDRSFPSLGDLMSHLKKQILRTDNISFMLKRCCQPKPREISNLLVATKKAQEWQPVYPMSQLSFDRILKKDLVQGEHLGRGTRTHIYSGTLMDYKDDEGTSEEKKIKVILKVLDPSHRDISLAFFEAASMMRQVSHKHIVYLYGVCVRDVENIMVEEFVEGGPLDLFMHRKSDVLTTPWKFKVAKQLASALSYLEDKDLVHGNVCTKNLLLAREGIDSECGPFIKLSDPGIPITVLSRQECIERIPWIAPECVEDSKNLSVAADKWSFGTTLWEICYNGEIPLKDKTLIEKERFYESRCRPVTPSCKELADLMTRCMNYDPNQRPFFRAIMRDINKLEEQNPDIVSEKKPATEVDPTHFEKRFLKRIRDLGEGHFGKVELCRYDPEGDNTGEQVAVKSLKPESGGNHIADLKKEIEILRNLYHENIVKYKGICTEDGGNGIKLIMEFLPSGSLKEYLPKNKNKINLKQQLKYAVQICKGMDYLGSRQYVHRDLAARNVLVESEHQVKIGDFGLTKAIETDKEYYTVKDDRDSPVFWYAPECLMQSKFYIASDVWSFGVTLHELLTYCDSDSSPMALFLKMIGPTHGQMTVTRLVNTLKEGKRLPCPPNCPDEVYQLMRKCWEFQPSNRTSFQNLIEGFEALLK

[3] = Human liver microsome (HLM) assay; type: in vitro ADME; conditions: incubations with human liver microsomes
Procedure: Subsequently, we assessed the in vitro metabolic stability and clearance values of WU derivatives in an HLM assay.
(A,B) Mouse PK following subcutaneous administration of WU derivatives (2 mg/kg) to CD-1 mice. […] All error bars are represented as mean ± standard deviation.
Mouse PK and in vitro human liver microsome (HLM) assay studies were conducted by Charles River Laboratories, Inc. (Wilmington, MA, USA). Briefly, male CD-1 mice were used in mouse PK studies. […] At 24 h, no drug levels were detected in plasma for any of the compounds tested. In addition, WU derivatives were evaluated in an in vitro HLM assay to determine the intrinsic human liver microsomal clearance values of compounds in incubations with human liver microsomes.

[4] = Mouse PK after subcutaneous injection; type: in vivo; conditions: 2 mg/kg s.c., CD-1 mice, time points up to 6 h; WU derivatives compared to BARI
[5] = 4 mg/kg s.c. once daily for 3 weeks from day 3, vs vehicle control
[6] = 20 mg/kg s.c. once daily for 3 weeks from day 3, vs vehicle control
[7] = dose not given, vs vehicle control

Sequence of TYK2 (P29597 whole entry): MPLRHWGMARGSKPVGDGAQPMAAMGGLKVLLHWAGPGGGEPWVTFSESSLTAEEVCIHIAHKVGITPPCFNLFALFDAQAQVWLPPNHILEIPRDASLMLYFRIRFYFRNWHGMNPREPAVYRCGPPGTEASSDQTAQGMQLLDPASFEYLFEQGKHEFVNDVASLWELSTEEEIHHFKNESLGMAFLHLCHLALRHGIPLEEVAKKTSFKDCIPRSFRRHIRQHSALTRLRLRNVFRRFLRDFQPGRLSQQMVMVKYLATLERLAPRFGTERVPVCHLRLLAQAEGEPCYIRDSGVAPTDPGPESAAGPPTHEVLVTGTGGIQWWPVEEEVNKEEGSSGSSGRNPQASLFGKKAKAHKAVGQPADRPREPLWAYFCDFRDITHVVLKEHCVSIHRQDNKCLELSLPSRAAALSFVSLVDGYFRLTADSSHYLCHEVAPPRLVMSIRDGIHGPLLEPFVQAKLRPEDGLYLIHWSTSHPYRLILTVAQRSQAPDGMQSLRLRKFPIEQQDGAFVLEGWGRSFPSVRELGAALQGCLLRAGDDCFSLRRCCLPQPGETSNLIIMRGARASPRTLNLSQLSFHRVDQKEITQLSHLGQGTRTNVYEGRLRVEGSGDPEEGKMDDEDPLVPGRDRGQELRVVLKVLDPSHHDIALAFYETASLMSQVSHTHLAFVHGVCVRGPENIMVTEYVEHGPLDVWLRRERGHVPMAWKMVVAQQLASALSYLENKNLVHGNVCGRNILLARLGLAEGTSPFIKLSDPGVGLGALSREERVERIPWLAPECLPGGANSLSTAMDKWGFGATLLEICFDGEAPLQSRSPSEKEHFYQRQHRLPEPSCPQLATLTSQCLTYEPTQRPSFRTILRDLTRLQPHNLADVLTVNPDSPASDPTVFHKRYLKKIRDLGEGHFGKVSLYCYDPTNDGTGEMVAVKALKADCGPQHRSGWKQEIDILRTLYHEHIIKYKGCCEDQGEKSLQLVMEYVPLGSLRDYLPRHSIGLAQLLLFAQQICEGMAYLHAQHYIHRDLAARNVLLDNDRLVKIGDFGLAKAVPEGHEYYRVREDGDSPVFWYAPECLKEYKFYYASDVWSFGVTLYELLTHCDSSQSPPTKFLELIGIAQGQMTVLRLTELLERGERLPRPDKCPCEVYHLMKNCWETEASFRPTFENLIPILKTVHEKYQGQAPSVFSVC

SMILES	IC50 (TYK2; IC50 TYK2, ATP at app. Km)	IC50 (JAK2; IC50 JAK2, ATP at app. Km)	IC50 (JAK3; IC50 JAK3, ATP at app. Km)	IC50 (TYK2; IC50 TYK2, ATP at 1 mM)	IC50 (JAK2; IC50 JAK2, ATP at 1 mM)	IC50 (JAK3; IC50 JAK3, ATP at 1 mM)	further results
CCS(=O)(=O)N1CC(CC#N)(n2cc(-c3ncnc4[nH]ccc34)cn2)C1 [BARI, baricitinib, reference compound]	2.21 nM	–	–	42.3 nM	–	–	clinical GvHD scores (GvHD; [5]): less clinical GvHD scores; overall survival (GvHD; [5]): significantly improved survival rate; clinical GvHD scores (GvHD; [6]): less clinical GvHD scores; overall survival (GvHD; [6]): significantly improved survival rate; terminal plasma half-life ([1]; in vivo): ~ 8.5 h; metabolism (extent) ([1]; in vivo): very little metabolism; plasma protein binding [2]: 50%
N#CC[C@H](C1CCCC1)n1cc(-c2ncnc3[nH]ccc23)cn1 [RUX, Ruxolitinib]	–	–	–	–	–	–	inhibition of off target PKN1 (PKN1): not by RUX; metabolism (extent) ([1]; RUX mostly in the liver via CYP(3A4)): > 99%; terminal plasma half-life ([1]; in vivo): ~ 2 h; plasma protein binding [2]: 97%
CCS(=O)(=O)N1CC2(CCC2(CC#N)n2cc(-c3ncnc4[nH]ccc34)cn2)C1 (stereo not drawn) [WU3]	578 nM	35.1 nM	36.2 nM	–	–	–	–
CC(C)(C)NS(=O)(=O)NC1CC2(C1)CC(CC#N)(n1cc(-c3ncnc4[nH]ccc34)cn1)C2 (stereo not drawn) [WU5]	3.11 nM	0.45 nM	11.2 nM	58.9 nM	9.88 nM	623 nM	IC50 (JAK1; IC50 JAK1, ATP at 1 mM): 8.2 nM; IC50 (JAK1; IC50 JAK1, ATP at app. Km): 1.47 nM; % of donor BM-derived B and T cells in the peripheral blood (GvHD; dose not given, day 27 after allo-HCT, vs vehicle control): increased the % of donor BM-derived B and T cells; clinical GvHD scores (GvHD; [7]): less clinical GvHD scores; overall survival (GvHD; [7]): significantly improved overall survival
CCS(=O)(=O)N1CCC2(CC1)CCC(CC#N)(n1cc(-c3ncnc4[nH]ccc34)cn1)CC2 [WU7]	12.1 nM	0.867 nM	12.3 nM	275 nM	13.8 nM	423 nM	in vitro metabolic stability in HLM [3]: diminished HLM metabolic stability; plasma drug concentration (mouse PK) [4]: significant reduction in plasma concentration at 2 h after injection
CS(=O)(=O)C1CC(CC#N)(n2cc(-c3ncnc4[nH]ccc34)cn2)C1 (stereo not drawn) [WU10]	4.56 nM	0.37 nM	13 nM	108 nM	6.11 nM	496 nM	% of Tregs in the spleens (GvHD; dose not given, day 6 after allo-HCT, vs vehicle control): significantly increased the % of Tregs; clinical GvHD scores (GvHD; [7]): reduced GvHD; overall survival (GvHD; [7]): trend towards increased overall survival; blood cell recovery (lymphocytes and white blood cells) (GvHD; dose not given, whole blood, day 27 after allo-HCT): trend towards improvement in blood cell recovery

More lines, main results first:

IC50 (TYK2; IC50 TYK2, ATP at app. Km)	IC50 (JAK2; IC50 JAK2, ATP at app. Km)	IC50 (JAK3; IC50 JAK3, ATP at app. Km)	SMILES	IC50 (TYK2; IC50 TYK2, ATP at 1 mM)	IC50 (JAK2; IC50 JAK2, ATP at 1 mM)	IC50 (JAK3; IC50 JAK3, ATP at 1 mM)	further results
29.4 nM	8.22 nM	60.8 nM	CCS(=O)(=O)N1CC2(C1)CC(CC#N)(n1cc(-c3ncnc4[nH]ccc34)cn1)C2 [WU1]	–	–	–	–
574 nM	54.2 nM	418 nM	CCS(=O)(=O)N1CCC12CC(CC#N)(n1cc(-c3ncnc4[nH]ccc34)cn1)C2 (stereo not drawn) [WU2]	–	–	–	–
2.24 nM	0.406 nM	10.4 nM	N#CCC1(n2cc(-c3ncnc4[nH]ccc34)cn2)CS(=O)(=O)C1 [WU9]	34.7 nM	9.67 nM	501 nM	–
